≈ marks a conversion by molar mass, not a printed value. Where “and” joins values, the source holds several entries; their conditions need not be identical. Equal entries are not always repeated. Where two headings read alike, the source gives them in different places.
Experiments:
[1] = tested on: S. aureus R33 MRSA; assay type: cell-based, Staphylococcus aureus
Method: (§1) Antibacterial activity of fermentation samples or purified samples was determined by Mueller-Hinton Agar diffusion bioassays using M. luteus ATCC 4698 as the indicator strain. Susceptibility testing (minimum inhibitory concentration [MIC]) for all aerobic organisms, with the exception of S. pneumoniae, was performed following the recommendations of CLSI. Susceptibility testing of S. pneumoniae was performed by two-fold serial dilutions in brain-heart-infusion broth supplemented with 50 μg/ml Ca^2+. Vancomycin was used as a reference antibiotic, and plates were incubated aerobically, with shaking, for 18–20 hr at 37°C with the MIC defined as the lowest concentration of drug that prevented visible growth.

[2] = tested on: S. aureus SH1000; assay type: cell-based, Staphylococcus aureus
Method: as §1

[3] = tested on: S. pneumoniae BAA-255; assay type: cell-based, Streptococcus pneumoniae
Method: as §1

[4] = tested on: M. luteus ATCC4698; assay type: cell-based, Micrococcus luteus
Method: as §1

[5] = tested on: E. faecalis ATCC29212; assay type: cell-based
Method: as §1

[6] = tested on: E. faecium 7131121 VRE; assay type: cell-based
Method: as §1

[7] = tested on: E. faecium ATCC19579; assay type: cell-based
Method: as §1

[8] = tested on: S. epidermidis NCTC11047; assay type: cell-based
Method: as §1

[9] = CLSI recommendations, incubated aerobically with shaking 18–20 hr at 37°C, MIC = lowest concentration preventing visible growth, purified variants

Structure (SMILES)	MIC S. aureus R33 MRSA ([1]; R33)	MIC S. aureus SH1000 ([2]; SH1000) [µg/mL]	MIC S. pneumoniae BAA-255 ([3]; BAA-255) [µg/mL]	MIC M. luteus ATCC4698 ([4]; ATCC4698) [µg/mL]	MIC E. faecalis ATCC29212 ([5]; ATCC29212) [µg/mL]	MIC E. faecium 7131121 VRE ([6]; 7131121 VRE) [µg/mL]	MIC E. faecium ATCC19579 ([7]; ATCC19579) [µg/mL]	MIC S. epidermidis NCTC11047 ([8]; NCTC11047)	MIC S. aureus R33 MRSA [1, 9]	MIC S. aureus SH1000 [2, 9] [µg/mL]	MIC S. pneumoniae BAA-255 ([3]; two-fold serial dilutions in brain-heart-infusion broth with 50 μg/ml Ca2+, 18–20 hr at 37°C, MIC = lowest concentration preventing visible growth) [µg/mL]	MIC M. luteus ATCC4698 [4, 9] [µg/mL]	MIC E. faecalis ATCC29212 [5, 9] [µg/mL]	MIC E. faecium 7131121 VRE ([6]; vancomycin-resistant clinical isolate, CLSI recommendations, 18–20 hr at 37°C, MIC = lowest concentration preventing visible growth) [µg/mL]	MIC E. faecium ATCC19579 [7, 9] [µg/mL]	MIC S. epidermidis NCTC11047 [8, 9] [µg/mL]
C=C1NC(=O)C2NC(=O)[C@H](CC(C)C)NC(=O)C(NC(=O)[C@@H]3CSC(C)C(NC(=O)[C@H](Cc4ccccc4)NC(=O)C4NC(=O)[C@@H](N)CSC4C)C(=O)N[C@@H](CC(C)C)C(=O)N4CCC[C@H]4C(=O)NCC(=O)NCC(=O)NCC(=O)NCC(=O)N[C@@H]([C@@H](C)CC)C(=O)N3)C(C)SC[C@H](NC(=O)[C@H](CCC(=O)O)NC1=O)C(=O)N[C@@H]([C@@H](C)CC)C(=O)NC=CSC2C (stereo partly shown) [V11I]	16 µg/mL (≈ 8.69 µM)	32 (≈ 17.4 µM)	16 (≈ 8.69 µM)	0.5 (≈ 0.272 µM)	16 (≈ 8.69 µM)	16 (≈ 8.69 µM)	16 (≈ 8.69 µM)	16 µg/mL (≈ 8.69 µM)								
C=C1NC(=O)C2NC(=O)[C@H](CC(C)C)NC(=O)C(NC(=O)[C@@H]3CSC(C)C(NC(=O)[C@H](Cc4ccccc4)NC(=O)C4NC(=O)[C@@H](N)CSC4C)C(=O)N[C@@H](CC(C)C)C(=O)N4CCC[C@H]4C(=O)NCC(=O)NCC(=O)NCC(=O)N[C@@H](C)C(=O)N[C@@H](C(C)C)C(=O)N3)C(C)SC[C@H](NC(=O)[C@H](CCC(=O)O)NC1=O)C(=O)N[C@@H]([C@@H](C)CC)C(=O)NC=CSC2C (stereo partly shown) [G10A]	64, >64 μg/ml	>64	8 (≈ 4.35 µM)	8 (≈ 4.35 µM)	>64	>64	>64	64, >64 μg/ml								
C=C1NC(=O)C2NC(=O)[C@H](CC(C)C)NC(=O)C(NC(=O)[C@@H]3CSC(C)C(NC(=O)[C@H](Cc4ccccc4)NC(=O)C4NC(=O)[C@@H](N)CSC4C)C(=O)N[C@@H](CC(C)C)C(=O)N4CCC[C@H]4C(=O)NCC(=O)NCC(=O)N[C@@H](CO)C(=O)NCC(=O)N[C@@H](C(C)C)C(=O)N3)C(C)SC[C@H](NC(=O)[C@H](CCC(=O)O)NC1=O)C(=O)N[C@@H]([C@@H](C)CC)C(=O)NC=CSC2C (stereo partly shown) [G9S]	64, >64 μg/ml	>64	>64	64 (≈ 34.5 µM)	>64	>64	>64	>64 µg/mL								
C=C1NC(=O)C2NC(=O)[C@H](CC(C)C)NC(=O)C(NC(=O)[C@@H]3CSC(C)C(NC(=O)[C@H](Cc4ccccc4)NC(=O)C4NC(=O)[C@@H](N)CSC4C)C(=O)N[C@@H](CC(C)C)C(=O)N4CCC[C@H]4C(=O)NCC(=O)NCC(=O)N[C@@H](C)C(=O)NCC(=O)N[C@@H](C(C)C)C(=O)N3)C(C)SC[C@H](NC(=O)[C@H](CCC(=O)O)NC1=O)C(=O)N[C@@H]([C@@H](C)CC)C(=O)NC=CSC2C (stereo partly shown) [G9A]	8 µg/mL (≈ 4.35 µM)	32 (≈ 17.4 µM)	8 (≈ 4.35 µM)	< 4	>64	>64	64 (≈ 34.8 µM)	32 µg/mL (≈ 17.4 µM)								
C=C1NC(=O)C2NC(=O)[C@H](CC(C)C)NC(=O)C(NC(=O)[C@@H]3CSC(C)C(NC(=O)[C@H](Cc4c[nH]c5ccccc45)NC(=O)C4NC(=O)[C@@H](N)CSC4C)C(=O)N[C@@H](CC(C)C)C(=O)N4CCC[C@H]4C(=O)NCC(=O)NCC(=O)NCC(=O)NCC(=O)N[C@@H](C(C)C)C(=O)N3)C(C)SC[C@H](NC(=O)[C@H](CCC(=O)O)NC1=O)C(=O)N[C@@H]([C@@H](C)CC)C(=O)NC=CSC2C (stereo partly shown) [F3W]	8 µg/mL (≈ 4.29 µM)	16 (≈ 8.58 µM)		0.5 (≈ 0.268 µM)	32 (≈ 17.2 µM)	32 (≈ 17.2 µM)	16 (≈ 8.58 µM)	8 µg/mL (≈ 4.29 µM)								
C=C1NC(=O)C2NC(=O)[C@H](CC(C)C)NC(=O)C(NC(=O)[C@@H]3CSC(C)C(NC(=O)[C@H](Cc4ccccc4)NC(=O)C4NC(=O)[C@@H](N)CSC4C)C(=O)N[C@@H](CC(C)C)C(=O)N4CCC[C@H]4C(=O)NCC(=O)N[C@@H](CC(N)=O)C(=O)NCC(=O)NCC(=O)N[C@@H](C(C)C)C(=O)N3)C(C)SC[C@H](NC(=O)[C@H](CCC(=O)O)NC1=O)C(=O)N[C@@H]([C@@H](C)CC)C(=O)NC=CSC2C (stereo partly shown) [G8N]									16 µg/mL and 32 µg/mL	>64	>64	8 (≈ 4.25 µM)	>64	>64	>64	64 (≈ 34 µM)
C=C1NC(=O)C2NC(=O)[C@H](CC(C)C)NC(=O)C(NC(=O)[C@@H]3CSC(C)C(NC(=O)[C@H](Cc4ccccc4)NC(=O)C4NC(=O)[C@@H](N)CSC4C)C(=O)N[C@@H](CC(C)C)C(=O)N4CCC[C@H]4C(=O)NCC(=O)NCC(=O)NCC(=O)N[C@@H](CC(N)=O)C(=O)N[C@@H](C(C)C)C(=O)N3)C(C)SC[C@H](NC(=O)[C@H](CCC(=O)O)NC1=O)C(=O)N[C@@H]([C@@H](C)CC)C(=O)NC=CSC2C (stereo partly shown) [G10N]	64, >64 μg/ml	>64	>64	8 (≈ 4.25 µM)	>64	>64	>64	>64 µg/mL								
CC=C1NC(=O)C2NC(=O)[C@H](CC(C)C)NC(=O)C(NC(=O)[C@@H]3CSC(C)C(NC(=O)[C@H](Cc4ccccc4)NC(=O)C4NC(=O)[C@@H](N)CSC4C)C(=O)N[C@@H](CC(C)C)C(=O)N4CCC[C@H]4C(=O)NCC(=O)NCC(=O)NCC(=O)NCC(=O)N[C@@H](C(C)C)C(=O)N3)C(C)SC[C@H](NC(=O)[C@H](CCC(=O)O)NC1=O)C(=O)N[C@@H]([C@@H](C)CC)C(=O)NC=CSC2C (stereo partly shown) [S16Db]	8 µg/mL (≈ 4.35 µM)	32 (≈ 17.4 µM)	32 (≈ 17.4 µM)	1 (≈ 0.543 µM)	32 (≈ 17.4 µM)	64 (≈ 34.8 µM)	32 (≈ 17.4 µM)	16 µg/mL (≈ 8.69 µM)								
CC[C@H](C)[C@@H]1NC(=O)[C@@H]2CSC(C)C(NC(=O)[C@@H]3CSC(C)C(NC(=O)[C@H](Cc4ccccc4)NC(=O)C4NC(=O)[C@@H](N)CSC4C)C(=O)N[C@@H](CC(C)C)C(=O)N4CCC[C@H]4C(=O)NCC(=O)NCC(=O)NCC(=O)NCC(=O)N[C@@H](C(C)C)C(=O)N3)C(=O)N[C@@H](CC(C)C)C(=O)NC(C(=O)N[C@@H](C)C(=O)N[C@@H](CCC(=O)O)C(=O)N2)C(C)SC=CNC1=O (stereo partly shown) [S16A]	16 µg/mL (≈ 8.75 µM)	64 (≈ 35 µM)	4 (≈ 2.19 µM)	2 (≈ 1.09 µM)	64 (≈ 35 µM)	>64	32 (≈ 17.5 µM)	32 µg/mL (≈ 17.5 µM)								
C=C1NC(=O)C2NC(=O)[C@H](CC(C)C)NC(=O)C(NC(=O)[C@@H]3CSC(C)C(NC(=O)[C@H](Cc4ccccc4)NC(=O)C4NC(=O)[C@@H](N)CSC4C)C(=O)N[C@@H](CC(C)C)C(=O)N4CCC[C@H]4C(=O)NCC(=O)NCC(=O)N[C@@H](Cc4c[nH]cn4)C(=O)NCC(=O)N[C@@H](C(C)C)C(=O)N3)C(C)SC[C@H](NC(=O)[C@H](CCC(=O)O)NC1=O)C(=O)N[C@@H]([C@@H](C)CC)C(=O)NC=CSC2C (stereo partly shown) [G9H]		32 (≈ 16.8 µM)	16 (≈ 8.39 µM)	< 4	>64	>64	64 (≈ 33.6 µM)	32 µg/mL (≈ 16.8 µM)								
C=C1NC(=O)C2NC(=O)[C@H](CC(C)C)NC(=O)C(NC(=O)[C@@H]3CSC(C)C(NC(=O)[C@H](Cc4ccccc4)NC(=O)C4NC(=O)[C@@H](N)CSC4C)C(=O)N[C@@H](CC(C)C)C(=O)N4CCC[C@H]4C(=O)N[C@@H](C)C(=O)NCC(=O)NCC(=O)NCC(=O)N[C@@H](C(C)C)C(=O)N3)C(C)SC[C@H](NC(=O)[C@H](CCC(=O)O)NC1=O)C(=O)N[C@@H]([C@@H](C)CC)C(=O)NC=CSC2C (stereo partly shown) [G7A]		>64	>64	64 (≈ 34.8 µM)	>64	>64	64 (≈ 34.8 µM)	64 µg/mL (≈ 34.8 µM)								

Source: PMC2706954, “Dissecting Structural and Functional Diversity of the Lantibiotic Mersacidin” (Chemistry & Biology, 2009)
